Data from patent publication US10519154B2, “7-substituted 1-pyridyl-naphthyridine-3-carboxylic acid amides and use thereof” (Bayer Pharma Aktiengesellschaft, priority 2016, dated 2019).

Biological target: T1, human M2 receptor (Homo sapiens, UniProt P08172)
T1 sequence (P08172 1-466): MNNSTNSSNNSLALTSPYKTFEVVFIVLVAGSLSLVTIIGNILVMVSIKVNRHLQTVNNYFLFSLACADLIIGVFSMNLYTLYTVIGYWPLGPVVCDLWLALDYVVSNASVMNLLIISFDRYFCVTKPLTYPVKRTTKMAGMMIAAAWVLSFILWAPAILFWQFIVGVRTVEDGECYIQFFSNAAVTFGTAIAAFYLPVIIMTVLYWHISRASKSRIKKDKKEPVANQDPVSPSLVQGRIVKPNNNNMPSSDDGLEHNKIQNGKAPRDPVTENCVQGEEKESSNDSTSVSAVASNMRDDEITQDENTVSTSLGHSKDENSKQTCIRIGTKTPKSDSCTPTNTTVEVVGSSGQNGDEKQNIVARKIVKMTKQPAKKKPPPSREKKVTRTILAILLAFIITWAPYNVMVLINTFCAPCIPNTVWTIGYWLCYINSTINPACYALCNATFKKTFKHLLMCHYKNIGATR
Experiment: Functional M2-GIRK1/4 activation test: allosteric potency (EC50) and efficiency
Details: for EC50: Receptor activity EC50, CHO-DUKX-M2-GIRK cells, acetylcholine at EC20, in some cases mean of two or more determinations; for Emax: read-out: Efficiency, boosting of the acetylcholine effect at EC20 acetylcholine concentration

Row | SMILES | EC50 | Emax (CHO-DUKX-M2-GIRK cells) | Efficiency (boosting of the acetylcholine effect at EC20 acetylcholine concentration, CHO-DUKX-M2-GIRK cells)
1 | CC[C@@H](NC(=O)c1cn(-c2ncc(F)cc2F)c2nc(N3CCCC(O)C3)ccc2c1=O)C(F)(F)F (mixture of isomers) [Example 117, 1-(3,5-Difluoropyridin-2-yl)-7-[3-hydroxypiperidin-1-yl]-4-oxo-N-[(2R)-1,1,1-trifluorobutan-2-yl]-1,4-dihydro-1,8-naphthyridine-3-carboxamide] | 400 nM | 94.5% | –
2 | CC(C)C[C@@H](NC(=O)c1cn(-c2ncc(F)cc2F)c2nc(N3CCNC3=O)ccc2c1=O)C(F)(F)F [Example 156, 1-(3,5-Difluoropyridin-2-yl)-4-oxo-7-(2-oxoimidazolidin-1-yl)-N-[-(2R)-1,1,1-trifluoro-4-methylpentan-2-yl]-1,4-dihydro-1,8-naphthyridine-3-carboxamide] | 36 nM | 100% | –
3 | CC[C@@H](NC(=O)c1cn(-c2ncc(F)cc2F)c2nc(NCC(F)F)ccc2c1=O)C(F)(F)F [Example 70, 7-[(2,2-Difluoroethyl)amino]-1-(3,5-difluoropyridin-2-yl)-4-oxo-N-[(2R)-1,1,1-trifluorobutan-2-yl]-1,4-dihydro-1,8-naphthyridine-3-carboxamide] | 220 nM | 91% | –
4 | CCC(NC(=O)c1cn(-c2ncc(F)cc2F)c2nc(N3C[C@@H](O)[C@H](O)C3)ccc2c1=O)C(F)(F)C(F)(F)F (single isomer, unassigned) [Example 96] | 68 nM | 100% | –
5 | O=C(NC(c1ccccc1Cl)C(F)(F)F)c1cn(-c2ncc(F)cc2F)c2nc(N3CCNC3=O)ccc2c1=O (single isomer, unassigned) [Example 148, N-[1-(2-Chlorophenyl)-2,2,2-trifluoroethyl]-1-(3,5-difluoropyridin-2-yl)-4-oxo-7-(2-oxoimidazolidin-1-yl)-1,4-dihydro-1,8-naphthyridine-3-carboxamide] | 66 nM | 100% | –
6 | CC(NC(=O)c1cn(-c2ncc(F)cc2F)c2nc(N3CCNC3=O)ccc2c1=O)C(F)(F)C(F)(F)F (single isomer, unassigned) [Example 163, 1-(3,5-Difluoropyridin-2-yl)-4-oxo-7-(2-oxoimidazolidin-1-yl)-N-[3,3,4,4,4-pentafluorobutan-2-yl]-1,4-dihydro-1,8-naphthyridine-3-carboxamide] | 120 nM | – | 100.00%
7 | O=C(Nc1c(Cl)cccc1Cl)c1cn(-c2ncc(F)cc2F)c2nc(N3C[C@H](O)[C@@H](O)C3)ccc2c1=O [Example 68, N-(2,6-Dichlorophenyl)-1-(3,5-difluoropyridin-2-yl)-7-[(3S,4S)-3,4-dihydroxypyrrolidin-1-yl]-4-oxo-1,4-dihydro-1,8-naphthyridine-3-carboxamide] | 195 nM | 96% | –
8 | O=C(NC(C(F)(F)F)C(F)(F)F)c1cn(-c2ncc(F)cc2F)c2nc(N3CC4CC4(O)C3)ccc2c1=O (racemic) [Example 57, 1-(3,5-Difluoropyridin-2-yl)-N-(1,1,1,3,3,3-hexafluoropropan-2-yl)-7-[1-hydroxy-3-azabicyclo[3.1.0]hex-3-yl]-4-oxo-1,4-dihydro-1,8-naphthyridine-3-carboxamide] | 10 nM | 94% | –
9 | O=C(N[C@H](C1CC1)C(F)(F)F)c1cn(-c2ncccc2F)c2nc(N3C[C@@H](O)CC3=O)ccc2c1=O [Example 139, N-[(1R)-1-Cyclopropyl-2,2,2-trifluoroethyl]-1-(3-fluoropyridin-2-yl)-7-[(4S)-4-hydroxy-2-oxopyrrolidin-1-yl]-4-oxo-1,4-dihydro-1,8-naphthyridine-3-carboxamide] | 230 nM | 100% | –
10 | CC(C)(C)[C@H](NC(=O)c1cn(-c2ncc(F)cc2F)c2nc(N3CCCN(CCO)C3=O)ccc2c1=O)C(F)(F)F [Example 125, 1-(3,5-Difluoropyridin-2-yl)-7-[3-(2-hydroxyethyl)-2-oxotetrahydropyrimidin-1(2H)-yl]-4-oxo-N-[(2S)-1,1,1-trifluoro-3,3-dimethylbutan-2-yl]-1,4-dihydro-1,8-naphthyridine-3-carboxamide] | 73 nM | 97% | –
11 | O=C(NC(C(F)(F)F)C(F)(F)F)c1cn(-c2ncc(F)cc2F)c2nc(N3C[C@H](O)[C@@H](O)C3)ccc2c1=O [Example 60, 1-(3,5-Difluoropyridin-2-yl)-7-[(3S,4S)-3,4-dihydroxypyrrolidin-1-yl]-N-(1,1,1,3,3,3-hexafluoropropan-2-yl)-4-oxo-1,4-dihydro-1,8-naphthyridine-3-carboxamide] | 275 nM | 100% | –
12 | CC[C@H](NC(=O)c1cn(-c2ncc(F)cc2F)c2nc(N(C)C)ccc2c1=O)C(F)(F)F [Example 130, 1-(3,5-Difluoropyridin-2-yl)-7-(dimethylamino)-4-oxo-N-[(2S)-1,1,1-trifluorobutan-2-yl]-1,4-dihydro-1,8-naphthyridine-3-carboxamide] | 53 nM | 93% | –
13 | CC1(NC(=O)c2cn(-c3ncc(F)cc3F)c3nc(N4C[C@@H](O)CC4=O)ccc3c2=O)CC(F)(F)C1 [Example 172, N-(3,3-Difluoro-1-methylcyclobutyl)-1-(3,5-difluoropyridin-2-yl)-7-[(4S)-4-hydroxy-2-oxopyrrolidin-1-yl]-4-oxo-1,4-dihydro-1,8-naphthyridine-3-carboxamide] | 1600 nM | 98% | –
14 | CC[C@H](NC(=O)c1cn(-c2ncc(F)cc2F)c2nc(N3CC(O)C3)ccc2c1=O)C(F)(F)F [Example 133, 1-(3,5-Difluoropyridin-2-yl)-7-(3-hydroxyazetidin-1-yl)-4-oxo-N-[(2S)-1,1,1-trifluorobutan-2-yl]-1,4-dihydro-1,8-naphthyridine-3-carboxamide] | 315 nM | 92% | –
15 | CC1(C)C(=O)N(c2ccc3c(=O)c(C(=O)N[C@H](C4CC4)C(F)(F)F)cn(-c4ncc(F)cc4F)c3n2)C2(CC2)C1O (stereo partly drawn) [Example 32] | 400 nM | 89.5% | –
16 | O=C(N[C@H](C1CC1)C(F)(F)F)c1cn(-c2ncc(F)cc2F)c2nc(N3CCN(CCO)C3=O)ccc2c1=O [Example 121, N-[(1R)-1-Cyclopropyl-2,2,2-trifluoroethyl]-1-(3,5-difluoropyridin-2-yl)-7-[3-(2-hydroxyethyl)-2-oxoimidazolidin-1-yl]-4-oxo-1,4-dihydro-1,8-naphthyridine-3-carboxamide] | 320 nM | 99% | –
17 | O=C(N[C@H](C1CC1)C(F)(F)F)c1cn(-c2ncc(F)cc2Cl)c2nc(N3C[C@@H](O)CC3=O)ccc2c1=O [Example 21, 1-(3-Chloro-5-fluoropyridin-2-yl)-N-[(1R)-1-cyclopropyl-2,2,2-trifluoroethyl]-7-[(4S)-4-hydroxy-2-oxopyrrolidin-1-yl]-4-oxo-1,4-dihydro-1,8-naphthyridine-3-carboxamide] | 195 nM | 98.5% | –
18 | CC(C)(NC(=O)c1cn(-c2ncc(F)cc2F)c2nc(N3CC(CO)(CO)C3)ccc2c1=O)C(F)(F)C(F)(F)F [Example 184, 7-[3,3-Bis(hydroxymethyl)azetidin-1-yl]-1-(3,5-difluoropyridin-2-yl)-4-oxo-N-(3,3,4,4,4-pentafluoro-2-methylbutan-2-yl)-1,4-dihydro-1,8-naphthyridine-3-carboxamide] | 130 nM | 100% | –
